What was measured:
Format in all cases: in vivo
Conditions in all cases: evaluated after 13 days
[1] = test system: Ipomoea hederacea (IPOHE); assay: Pre-emergence Test (Table B1); design: key: 5=81-100%; 4=61-80%; 3=41-60%; 2=21-40%; 1=0-20%; 0=inactive
[2] = test system: Ipomoea hederacea (IPOHE); assay: Post-emergence Test (Table B2); design: key: 5=81-100%; 4=61-80%; 3=41-60%; 2=21-40%; 1=0-20%; 0=inactive
Description: (§1) Seeds of a variety of test species are sown in standard soil in pots (Amaranthus palmeri (AMAPA), Setaria faberi (SETFA), Echinochloa crus-galli (ECHCG), (Amaranthus retroflexus (AMARE), Zea mays (ZEAMX), Ipomoea hederacea (IPOHE)). After 8 days cultivation under controlled conditions in a glasshouse (at 24° C./16° C., day/night; 14 hours light; 65% humidity), the plants are sprayed with an aqueous spray solution derived from the formulation of the technical active ingredient in acetone/water (50:50) solution containing 0.5% Tween 20 (polyoxyethelyene sorbitan monolaurate, CAS RN 9005-64-5). Compounds are applied at 1000 g/ha unless otherwise stated. The test plants are then grown in a glasshouse under controlled conditions in a glasshouse (at 24° C./16° C., day/night; 14 hours light; 65% humidity) and watered twice daily. After 13 days the test is evaluated for the percentage damage caused to the plant.

Zea mays (ZEAMX) [3] = assay: Post-emergence Test (Table B2); design: key: 5=81-100%; 4=61-80%; 3=41-60%; 2=21-40%; 1=0-20%; 0=inactive
Description: as §1

[4] = test system: Echinochloa crus-galli (ECHCG); assay: Post-emergence Test (Table B2); design: key: 5=81-100%; 4=61-80%; 3=41-60%; 2=21-40%; 1=0-20%; 0=inactive
Description: as §1

Setaria faberi (SETFA) [5] = assay: Pre-emergence Test (Table B1); design: key: 5=81-100%; 4=61-80%; 3=41-60%; 2=21-40%; 1=0-20%; 0=inactive
Zea mays (ZEAMX) [6] = assay: Pre-emergence Test (Table B1); design: key: 5=81-100%; 4=61-80%; 3=41-60%; 2=21-40%; 1=0-20%; 0=inactive
[7] = test system: Amaranthus retroflexus (AMARE); assay: Pre-emergence Test (Table B1)
[8] = test system: Amaranthus palmeri (AMAPA); assay: Pre-emergence Test (Table B1)
Setaria faberi (SETFA) [9] = assay: Post-emergence Test (Table B2)
Description: as §1

[10] = test system: Amaranthus retroflexus (AMARE); assay: Post-emergence Test (Table B2)
Description: as §1

[11] = test system: Amaranthus palmeri (AMAPA); assay: Post-emergence Test (Table B2)
Description: as §1

[12] = test system: Echinochloa crus-galli (ECHCG); assay: Pre-emergence Test (Table B1); design: key: 5=81-100%; 4=61-80%; 3=41-60%; 2=21-40%; 1=0-20%; 0=inactive
[13] = lower rate of 250 g per hectare

SMILES	percentage damage caused to the plant, IPOHE ([1]; 1000 g/ha)	percentage damage caused to the plant, IPOHE ([2]; 1000 g/ha)	percentage damage caused to the plant, ZEAMX (Zea mays (ZEAMX) [3]; 1000 g/ha)	percentage damage caused to the plant, ECHCG ([4]; 1000 g/ha)	percentage damage caused to the plant, SETFA (Setaria faberi (SETFA) [5]; 1000 g/ha)	percentage damage caused to the plant, ZEAMX (Zea mays (ZEAMX) [6]; 1000 g/ha)	percentage damage caused to the plant, AMARE ([7]; 1000 g/ha)	percentage damage caused to the plant, AMAPA ([8]; 1000 g/ha)	percentage damage caused to the plant, SETFA (Setaria faberi (SETFA) [9]; 1000 g/ha)	percentage damage caused to the plant, AMARE ([10]; 1000 g/ha)	percentage damage caused to the plant, AMAPA ([11]; 1000 g/ha)	percentage damage caused to the plant, ECHCG ([12]; 1000 g/ha)	also measured
C=CC(C)OC(=O)c1cc(-c2c(C)n(CC)c(-c3ccc(Cl)c(Cl)c3)c(C(=O)O)c2=O)c(F)cc1Cl (stereo not drawn) [Compound 21, 5-[4-chloro-2-fluoro-5-(1-methylallyloxycarbonyl)phenyl]-2-(3,4-dichlorophenyl)-1-ethyl-6-methyl-4-oxo-pyridine-3-carboxylic acid]	3 (3=41-60%)	3 (3=41-60%)	2 (2=21-40%)	4 (4=61-80%)	2 (2=21-40%)	0	5 (5=81-100%)	5 (5=81-100%)	3 (3=41-60%)	5 (5=81-100%)	5 (5=81-100%)	4 (4=61-80%)	–
CCn1c(C)c(-c2cc(C(=O)OC(C)CC(=O)OC)c(Cl)cc2F)c(=O)c(C(=O)O)c1-c1ccc(Cl)c(Cl)c1 (stereo not drawn) [Compound 42, 5-[4-chloro-2-fluoro-5-(3-methoxy-1-methyl-3-oxo-propoxy)carbonyl-phenyl]-2-(3,4-dichlorophenyl)-1-ethyl-6-methyl-4-oxo-pyridine-3-carboxylic acid]	–	–	–	–	–	–	–	–	–	–	–	–	percentage damage caused to the plant, IPOHE [1, 13]: 0; percentage damage caused to the plant, IPOHE [2, 13]: 3 (3=41-60%); percentage damage caused to the plant, ZEAMX (Zea mays (ZEAMX) [3]; [13]): 3 (3=41-60%); percentage damage caused to the plant, ECHCG [4, 13]: 2 (2=21-40%); percentage damage caused to the plant, SETFA (Setaria faberi (SETFA) [5]; [13]): 0; percentage damage caused to the plant, ZEAMX (Zea mays (ZEAMX) [6]; [13]): 1 (1=0-20%); percentage damage caused to the plant, AMARE [7, 13]: 3 (3=41-60%); percentage damage caused to the plant, AMAPA [8, 13]: 1 (1=0-20%); percentage damage caused to the plant, SETFA (Setaria faberi (SETFA) [9]; [13]): 2 (2=21-40%); percentage damage caused to the plant, AMARE [10, 13]: 5 (5=81-100%); percentage damage caused to the plant, AMAPA [11, 13]: 4 (4=61-80%); percentage damage caused to the plant, ECHCG [12, 13]: 0
CCOCC(C)OC(=O)c1ccc(F)c(-c2c(C)n(CC)c(-c3ccc(Cl)c(Cl)c3)c(C(=O)O)c2=O)c1 (stereo not drawn) [Compound 14, 2-(3,4-dichlorophenyl)-5-[5-(2-ethoxy-1-methyl-ethoxy)carbonyl-2-fluoro-phenyl]-1-ethyl-6-methyl-4-oxo-pyridine-3-carboxylic acid]	0	0	1 (1=0-20%)	3 (3=41-60%)	3 (3=41-60%)	0	5 (5=81-100%)	5 (5=81-100%)	3 (3=41-60%)	5 (5=81-100%)	5 (5=81-100%)	0	–
CCn1c(C)c(-c2cc(C(=O)OC(C)CF)ccc2F)c(=O)c(C(=O)O)c1-c1ccc(Cl)c(Cl)c1 (stereo not drawn) [Compound 9, 2-(3,4-dichlorophenyl)-1-ethyl-5-[2-fluoro-5-(2-fluoro-1-methyl-ethoxy)carbonyl-phenyl]-6-methyl-4-oxo-pyridine-3-carboxylic acid]	0	1 (1=0-20%)	2 (2=21-40%)	2 (2=21-40%)	2 (2=21-40%)	1 (1=0-20%)	5 (5=81-100%)	5 (5=81-100%)	3 (3=41-60%)	5 (5=81-100%)	4 (4=61-80%)	1 (1=0-20%)	–
CCn1c(C)c(-c2cc(C(=O)OC3CC3)c(Cl)cc2F)c(=O)c(C(=O)O)c1-c1ccc(C#N)c(F)c1 [Compound 39, 5-[4-chloro-5-(cyclopropoxycarbonyl)-2-fluoro-phenyl]-2-(4-cyano-3-fluoro-phenyl)-1-ethyl-6-methyl-4-oxo-pyridine-3-carboxylic acid]	–	–	–	–	–	–	–	–	–	–	–	–	percentage damage caused to the plant, IPOHE [1, 13]: 4 (4=61-80%); percentage damage caused to the plant, IPOHE [2, 13]: 4 (4=61-80%); percentage damage caused to the plant, ZEAMX (Zea mays (ZEAMX) [3]; [13]): 5 (5=81-100%); percentage damage caused to the plant, ECHCG [4, 13]: 4 (4=61-80%); percentage damage caused to the plant, SETFA (Setaria faberi (SETFA) [5]; [13]): 0; percentage damage caused to the plant, ZEAMX (Zea mays (ZEAMX) [6]; [13]): 0; percentage damage caused to the plant, AMARE [7, 13]: 5 (5=81-100%); percentage damage caused to the plant, AMAPA [8, 13]: 5 (5=81-100%); percentage damage caused to the plant, SETFA (Setaria faberi (SETFA) [9]; [13]): 5 (5=81-100%); percentage damage caused to the plant, AMARE [10, 13]: 5 (5=81-100%); percentage damage caused to the plant, AMAPA [11, 13]: 5 (5=81-100%); percentage damage caused to the plant, ECHCG [12, 13]: 0
C#CCOC(=O)c1cc(-c2c(C)n(CC)c(-c3ccc(Cl)c(Cl)c3)c(C(=O)O)c2=O)c(F)cc1Cl [Compound 2, 5-(4-chloro-2-fluoro-5-prop-2-ynoxycarbonyl-phenyl)-2-(3,4-dichlorophenyl)-1-ethyl-6-methyl-4-oxo-pyridine-3-carboxylic acid]	0	4 (4=61-80%)	5 (5=81-100%)	4 (4=61-80%)	1 (1=0-20%)	0	5 (5=81-100%)	5 (5=81-100%)	5 (5=81-100%)	5 (5=81-100%)	5 (5=81-100%)	0	–
CC#CC(C)OC(=O)c1ccc(F)c(-c2c(C)n(CC)c(-c3ccc(Cl)c(Cl)c3)c(C(=O)O)c2=O)c1 (stereo not drawn) [Compound 15, 2-(3,4-dichlorophenyl)-1-ethyl-5-[2-fluoro-5-(1-methylbut-2-ynoxycarbonyl)phenyl]-6-methyl-4-oxo-pyridine-3-carboxylic acid]	0	2 (2=21-40%)	4 (4=61-80%)	5 (5=81-100%)	0	0	5 (5=81-100%)	5 (5=81-100%)	5 (5=81-100%)	5 (5=81-100%)	5 (5=81-100%)	0	–
